Reference: patent publication US20240270821A1, “GIP/GLP1/GCG TRI-RECEPTOR AGONISTS AND USES THEREOF” (priority 2023, published 2024)
Read-outs that look alike come from different tables or passages of the source. Starred links: 1 amine or outer side, 2 acyl side, 3 side chain; linkers in the order of their positions; H or OH if unused. Non-standard residues stand in square brackets, D forms with d. Residues, ends and D or L forms follow the SMILES beside them. Groups on a side chain read outwards from the residue. No end group written: not given here. *: point of attachment. C18 diacid = O=C(O)CCCCCCCCCCCCCCCCC(=O)*; αMePhe(2-F) = C[C@](N)(Cc1ccccc1F)C(=O)O; γGlu = O=C(O)[C@H](CCC(=O)[*:2])N[*:1]; αMe4Pal = C[C@](N)(Cc1ccncc1)C(=O)O; αMeY = C[C@](N)(Cc1ccc(O)cc1)C(=O)O; 4Pal = N[C@@H](Cc1ccncc1)C(=O)O; αMeL = CC(C)C[C@](C)(N)C(=O)O; αMeS = C[C@](N)(CO)C(=O)O; Orn = NCCC[C@H](N)C(=O)O; AEEA = NCCOCCOCC(=O)O; Aib = CC(C)(N)C(=O)O

Tests used:
Assay type in all cases: cell-based
[1] = target: T1, hGIPR (Homo sapiens, UniProt P48546); assay: Functional cAMP activation in the presence of 0.1% casein (no HSA); settings: read-out: Relative cAMP EC50, hGIPR;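 also: intracellular cAMP rise after 30 min at 37 °C read by HTRF against a standard curve, scaled between buffer alone (0%) and top control ligand concentration (100%), four-parameter fit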
T1 sequence (P48546 22-466): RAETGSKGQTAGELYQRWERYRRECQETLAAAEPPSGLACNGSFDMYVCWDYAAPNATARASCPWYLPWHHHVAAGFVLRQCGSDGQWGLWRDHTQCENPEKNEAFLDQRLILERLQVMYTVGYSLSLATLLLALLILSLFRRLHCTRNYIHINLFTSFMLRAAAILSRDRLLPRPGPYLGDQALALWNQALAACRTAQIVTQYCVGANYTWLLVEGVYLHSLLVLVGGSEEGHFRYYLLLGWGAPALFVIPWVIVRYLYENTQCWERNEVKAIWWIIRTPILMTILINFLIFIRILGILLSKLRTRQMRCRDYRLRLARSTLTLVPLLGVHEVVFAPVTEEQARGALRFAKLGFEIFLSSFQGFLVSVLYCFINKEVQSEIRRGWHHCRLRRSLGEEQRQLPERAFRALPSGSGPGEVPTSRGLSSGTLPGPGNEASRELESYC

[2] = target: T2, hGLP-1R (Homo sapiens, UniProt P43220); assay: Functional cAMP activity in the presence of 1% HSA; settings: read-out: cAMP Rel EC50, hGLP-1R
[3] = target: T1, hGIPR; assay: Functional cAMP activity in the presence of 1% HSA; settings: read-out: cAMP Rel EC50, hGIPR
[4] = target: T2, hGLP-1R; assay: Functional cAMP activation in the presence of 0.1% casein (no HSA); settings: read-out: Relative cAMP EC50, hGLP-1R;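 as to Relative cAMP EC50, hGLP-1R: intracellular cAMP rise after 30 min at 37 °C read by HTRF, normalized between buffer only (0%) and maximal control ligand (100%), four-parameter variable-slope fit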;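 as to Relative cAMP EC50, hGcgR: intracellular cAMP rise after 30 min at 37 °C, read by HTRF against a cAMP standard curve, scaled from buffer only (0%) to maximal control ligand response (100%)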
[5] = target: hGcgR (Homo sapiens, UniProt P47871); assay: as above; settings: read-out: Relative cAMP EC50, hGcgR;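 also: intracellular cAMP rise after 30 min at 37 °C, read by HTRF against a cAMP standard curve, scaled from buffer only (0%) to maximal control ligand response (100%)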
[6] = target: human GcgR (Homo sapiens, UniProt P47871); assay: Functional cAMP activity in the presence of 1% HSA; settings: read-out: cAMP Rel EC50, hGcgR
[7] = in the presence of 0.1% casein (no HSA), geometric mean

hGcgR, sequence (P47871 26-477): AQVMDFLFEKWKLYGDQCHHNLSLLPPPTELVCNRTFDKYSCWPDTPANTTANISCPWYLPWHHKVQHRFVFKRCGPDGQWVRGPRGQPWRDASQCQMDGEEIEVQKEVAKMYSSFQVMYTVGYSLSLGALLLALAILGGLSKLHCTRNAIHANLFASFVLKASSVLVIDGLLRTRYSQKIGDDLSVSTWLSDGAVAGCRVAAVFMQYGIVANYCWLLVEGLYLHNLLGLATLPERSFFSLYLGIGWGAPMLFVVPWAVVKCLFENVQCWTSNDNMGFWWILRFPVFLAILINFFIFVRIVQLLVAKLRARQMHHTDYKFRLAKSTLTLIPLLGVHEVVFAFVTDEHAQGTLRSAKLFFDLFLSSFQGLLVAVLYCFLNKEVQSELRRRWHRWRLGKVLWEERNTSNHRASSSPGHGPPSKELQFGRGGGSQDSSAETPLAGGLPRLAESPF
human GcgR, sequence (P47871 26-477): as above
T2 sequence (P43220 24-463): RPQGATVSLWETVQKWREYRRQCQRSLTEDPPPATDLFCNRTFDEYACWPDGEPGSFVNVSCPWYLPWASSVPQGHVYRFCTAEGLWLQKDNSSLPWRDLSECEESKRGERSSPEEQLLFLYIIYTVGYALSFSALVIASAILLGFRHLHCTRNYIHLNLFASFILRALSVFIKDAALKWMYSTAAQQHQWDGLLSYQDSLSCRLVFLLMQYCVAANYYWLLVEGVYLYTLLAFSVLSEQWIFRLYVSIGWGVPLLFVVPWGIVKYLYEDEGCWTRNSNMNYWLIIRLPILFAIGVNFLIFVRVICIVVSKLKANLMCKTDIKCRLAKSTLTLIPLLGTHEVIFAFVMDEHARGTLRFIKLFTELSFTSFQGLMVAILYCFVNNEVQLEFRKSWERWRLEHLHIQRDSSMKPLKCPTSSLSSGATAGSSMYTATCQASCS

Molecule | EC50 [1, 7] | EC50 [2] | EC50 [3] | EC50 [4, 7] | EC50 [5, 7] | EC50 [6] | EC50 [1] | EC50 [4] | EC50 [5]
H-Y[Aib]QGTFTSD[4Pal]SQ[αMeL]LDKK([γGlu-γGlu-C18 diacid])AQ[αMe4Pal]AFIE[αMe4Pal]LIEGGPSSGAPPPSGS-NH2 [Example 951] | 0.156 nM | 382 nM | 18.2 nM | 2.61 nM | 5.73 nM | 657 nM |  |  | 
H-Y[Aib]QGT[αMePhe(2-F)]TSD[4Pal][αMeS]I[αMeL]LD[Orn]K([γGlu-γGlu-C18 diacid])AQ[Aib][Orn]FI[dE][αMeY]LQEGGPSSGEPPPSGTEE-NH2 [Example 572] |  | 30.4 nM | 3.13 nM |  |  | 330 nM | 0.0465 nM | 0.366 nM | 3.48 nM
H-Y[Aib]QGTFTSD[4Pal]S[Orn][αMeL]LDKK([γGlu-γGlu-C18 diacid])AQ[αMe4Pal]AFIEYLIAGGPSSGEPPPSGTE-NH2 [Example 980] | 0.18 nM | 290 nM | 15.4 nM | 2.26 nM | 2.41 nM | 239 nM |  |  | 
H-Y[Aib]QGT[αMePhe(2-F)]TSD[4Pal][αMeS]I[αMeL]LD[Orn]K([AEEA-γGlu-C18 diacid])AQ[αMe4Pal]EFI[dE][αMeY]LVEGGPSSGAPPPEGE-NH2 [Example 1158] | 0.0126 nM | 46.8 nM | 1.42 nM | 0.419 nM | 2.19 nM | 301 nM |  |  | 
H-Y[Aib]QGTFTSDFS[Orn][αMeL]LDKK([γGlu-γGlu-γGlu-C18 diacid])AQ[Aib]AFIEYLLE[Aib]GPSSGAPPPSGS-NH2 [Example 202] | 0.0965 nM | 376 nM | 11.7 nM | 4.79 nM | 11.4 nM | 697 nM |  |  | 
H-Y[Aib]QGTFTSD[4Pal]SK[αMeL]LDKK([AEEA-γGlu-C18 diacid])AQ[Aib]AFIEYLIEGGPSSGAPPPSGS-NH2 [Example 908] | 0.246 nM | 174 nM | 26.7 nM | 1.2 nM | 8.11 nM | 980 nM |  |  | 
Y[Aib]QGTFTSD[4Pal]SQ[αMeL]LDKK([γGlu-γGlu-C18 diacid])AQ[αMe4Pal]AFIEYLIE[Aib]GPSSGAPPPSGS-NH2 [Example 858] | 0.0995 nM | 258 nM | 13.1 nM | 1.83 nM | 3.44 nM | 678 nM |  |  | 
CC[C@H](C)[C@H](NC(=O)[C@H](Cc1ccccc1)NC(=O)[C@H](CCCN)NC(=O)C(C)(C)NC(=O)[C@H](CCC(N)=O)NC(=O)[C@H](C)NC(=O)[C@H](CCCCNC(=O)CC[C@H](NC(=O)CC[C@H](NC(=O)CCCCCCCCCCCCCCCCC(=O)O)C(=O)O)C(=O)O)NC(=O)[C@H](CCCN)NC(=O)[C@H](CC(=O)O)NC(=O)[C@H](CC(C)C)NC(=O)[C@](C)(CC(C)C)NC(=O)[C@@H](NC(=O)[C@H](CO)NC(=O)[C@H](Cc1ccncc1)NC(=O)[C@H](CC(=O)O)NC(=O)[C@H](CO)NC(=O)[C@@H](NC(=O)[C@](C)(Cc1ccccc1F)NC(=O)[C@@H](NC(=O)CNC(=O)[C@H](CCC(N)=O)NC(=O)C(C)(C)NC(=O)[C@@H](N)Cc1ccc(O)cc1)[C@@H](C)O)[C@@H](C)O)[C@@H](C)CC)C(=O)N[C@H](CCC(=O)O)C(=O)N[C@@](C)(Cc1ccc(O)cc1)C(=O)N[C@@H](CC(C)C)C(=O)N[C@@H](CC(C)C)C(=O)N[C@@H](CCC(=O)O)C(=O)NCC(=O)NCC(=O)N1CCC[C@H]1C(=O)N[C@@H](CO)C(=O)N[C@@H](CO)C(=O)NC(C)(C)C(=O)N[C@@H](CCC(=O)O)C(=O)N1CCC[C@H]1C(=O)N1CCC[C@H]1C(=O)N1CCC[C@H]1C(=O)N[C@@H](CCC(=O)O)C(N)=O [Example 373] (H-Y[Aib]QGT[αMePhe(2-F)]TSD[4Pal]SI[αMeL]LD[Orn]K([γGlu-γGlu-C18 diacid])AQ[Aib][Orn]FI[dE][αMeY]LLEGGPSS[Aib]EPPPE-NH2) | 0.0183 nM | 54.5 nM | 1.97 nM | 0.392 nM | 4.48 nM | 666 nM |  |  | 
